Where two headings read alike, the source gives them in different places.
Experiments:
Assay type in all cases: biochemical
[1] = molecular target: T1, truncated form of human GAPDHS (Mus musculus, UniProt Q64467); experiment: Inhibition of dehydrogenase activity of recombinant truncated GAPDHS (NADH accumulation at 340 nm);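 note: recombinant enzyme (1 µg) in glycine–phosphate–EDTA buffer pH 8.9, inhibitors tested from 1 µM to 3 mM, activity relative to DMSO-only controls taken as 100%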
T1 construct: tGapdhs, amino acids 106-438; made in house; host or cells: E. coli K-12 strain DS112 (gapA-deficient)

[2] = molecular target: T2, recombinant human GAPDH (Mus musculus, UniProt P16858); experiment: Inhibition of dehydrogenase activity of recombinant somatic GAPDH (NADH accumulation at 340 nm); settings: 1 hour preincubation at 4° C., 0.5 mM NAD, 0.5 mM glyceraldehyde-3-phosphate
T2 construct: made in house; host or cells: E. coli K-12 strain DS112 (gapA-deficient)
Excerpt: In subsequent studies to test inhibitors identified in computer docking studies, recombinant mouse Gapdh and the truncated form of Gapdhs (tGapdhs, amino acids 106-438) were expressed in DS112 gapA-deficient E. coli strain K-12 (available from the Yale University E. coli Genetics Stock Center, New Haven, Conn., United States of America). The truncated Gapdhs lacks the proline-rich N-terminus, but contains all the amino acids required for enzyme activity. The recombinant proteins were purified and activities were determined with a standard enzyme assay (Schmalhausen et al., 1997). Using this assay, the dehydrogenase activity of Gapdh and tGapdhs was monitored at 340 nm by measuring the accumulation of NADH.
The reaction mixture (200 μl) contained 50 mM glycine, 50 mM potassium phosphate, 5 mM EDTA (pH 8.9), 1 μg of recombinant enzyme (Gapdh or tGapdhs), 0.5 mM NAD, and 0.5 mM glyceraldehyde-3-phosphate. Activities of Gapdh and tGapdh were compared in the presence of various concentrations of inhibitors. Compounds identified as potential inhibitors in modeling studies as described herein were obtained from Ryan Scientific (Mt. Pleasant, S.C., United States of America). Stocks for each compound were prepared by dissolving 5 mg in 50 μl of DMSO. These stocks were divided into 10 μl aliquots and frozen at −20° C.
To monitor inhibition, each compound (1 μM to 3 mM) was added to the above reaction mixture (without NAD and glyceraldehyde-3-phosphate) and incubated for 1 hour at 4° C. After the 1 hour incubation period, NAD and glyceraldehyde-3-phosphate were added to start the reaction. In each assay, controls containing equal amounts of DMSO were included to determine values for 100% activity. The IC50 for each compound was calculated as the concentration required to reduce dehydrogenase activity to 50% of the activity of control samples.

[3] = test system: truncated form of human GAPDHS; experiment: Inhibition of dehydrogenase activity of recombinant truncated GAPDHS (NADH accumulation at 340 nm); settings: comparison of IC50 values of Tables 7, 9 and 11;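 note: recombinant enzyme (1 µg) in glycine–phosphate–EDTA buffer pH 8.9, inhibitors tested from 1 µM to 3 mM, activity relative to DMSO-only controls taken as 100%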
[4] = molecular target: T3, Recombinant mouse Gapdh (Mus musculus, UniProt P16858); experiment: Inhibition of recombinant Gapdh by adenine nucleotides (NAD reduction at 340 nm, 96-well format); settings: for inhibition of Gapdhs (the other recombinant enzyme beside tGapdhs): result in words
T3 construct: GST (cleaved yes); made in house

[5] = molecular target: T4, truncated Gapdhs (tGapdhs; amino acids 106-438 of mouse Gapdhs) (Mus musculus, UniProt Q64467); experiment: Inhibition of recombinant tGapdhs by adenine nucleotides (NAD reduction at 340 nm, 96-well format); settings: for inhibition of tGapdhs: recombinant enzyme, result in words
T4 construct: containing amino acids 106-438 of mouse Gapdhs; GST (cleaved yes); made in house

[6] = Table 9, 1 hour preincubation at 4° C., 0.5 mM NAD, 0.5 mM glyceraldehyde-3-phosphate, read-out: IC50 GAPDHS
[7] = competitive inhibitors of NAD cofactor binding, read-out: calculated Ki for Gapdh
[8] = competitive inhibitors of NAD cofactor binding, read-out: calculated Ki for tGapdhs
[9] = Table 7, 1 hour preincubation at 4° C., 0.5 mM NAD, 0.5 mM glyceraldehyde-3-phosphate, read-out: IC50 GAPDHS
[10] = Table 11, 1 hour preincubation at 4° C., 0.5 mM NAD, 0.5 mM glyceraldehyde-3-phosphate, read-out: IC50 GAPDHS

T1 sequence (Q64467 108-440): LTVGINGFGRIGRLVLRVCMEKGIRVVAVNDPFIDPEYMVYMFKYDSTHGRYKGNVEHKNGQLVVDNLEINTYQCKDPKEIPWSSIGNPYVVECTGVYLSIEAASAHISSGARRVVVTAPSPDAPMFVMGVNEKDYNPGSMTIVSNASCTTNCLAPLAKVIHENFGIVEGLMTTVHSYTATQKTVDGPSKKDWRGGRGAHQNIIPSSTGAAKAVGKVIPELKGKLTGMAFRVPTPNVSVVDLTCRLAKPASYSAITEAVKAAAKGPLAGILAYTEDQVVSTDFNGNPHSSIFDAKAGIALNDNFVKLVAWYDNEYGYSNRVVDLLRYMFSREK
T4 sequence (Q64467 108-440): as above
T2 sequence (P16858 whole entry): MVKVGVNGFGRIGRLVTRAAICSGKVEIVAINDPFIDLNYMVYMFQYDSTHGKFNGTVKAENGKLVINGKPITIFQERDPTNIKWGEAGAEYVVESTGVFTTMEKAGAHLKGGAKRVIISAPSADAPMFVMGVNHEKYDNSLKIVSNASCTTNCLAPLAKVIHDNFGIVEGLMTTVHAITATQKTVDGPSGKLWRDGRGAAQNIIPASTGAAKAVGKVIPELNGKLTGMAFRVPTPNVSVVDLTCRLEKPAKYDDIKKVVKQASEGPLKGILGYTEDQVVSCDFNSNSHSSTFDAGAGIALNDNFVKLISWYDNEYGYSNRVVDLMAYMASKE
T3 sequence (P16858 whole entry): as above

“3-(1H-Imidazolo-4-yl)-2-[3-(4-sulfamoyl-benzyl)-thioureido]-propionic acid [LT_00729760]” showed an IC50 [1, 6] of 2000 µM.

With “4-(1-Benzyl-IH-indol-3y1)-3,4-dihydro-benzo[4,5]imidazo[1,2-a][1,3,5]triazin-2-ylamine [Compound T0501_7933]” the IC50 ([2]; Table 9) was > 500 µM, the “selective inhibition: Gapdhs compared to Gapdh” value (“selective inhibition: Gapdhs” for short) [3] was “greater inhibition of Gapdhs than Gapdh” and the IC50 [1, 6] was 10 to 25 µM.

For “4-Amino-N-(4-methoxy-phenyl)-3-nitro-benzenesulfonamide-cyclohexyl-urea [Compound T0506_9350]”, the IC50 ([2]; Table 9) was > 1000 µM.

In the case of `Nc1ncnc2c1ncn2[C@@H]1O[C@H](COP(=O)(O)OP(=O)(O)O)[C@@H](O)[C@H]1O` [ADP], the Ki [4, 7] is reported as 1790 µM, the “inhibition of Gapdhs (the other recombinant enzyme beside tGapdhs)” value (shortened to “inhibition of Gapdhs”) [4] is reported as “dose-dependent inhibition” and the Ki [5, 8] is reported as 3970 µM. The “inhibition of tGapdhs” value [5] was “dose-dependent inhibition”.

For `Nc1ncnc2c1ncn2[C@@H]1O[C@H](COP(=O)(O)O)[C@@H](O)[C@H]1O` [AMP], the Ki [4, 7] was 1610 µM, the “inhibition of Gapdhs” value [4] was “dose-dependent inhibition” and the Ki [5, 8] was 3130 µM. The “inhibition of tGapdhs” value [5] was “dose-dependent inhibition”.

For `Nc1ncnc2c1ncn2[C@@H]1O[C@H](COP(=O)(O)OP(=O)(O)OP(=O)(O)O)[C@@H](O)[C@H]1O` [ATP, adenosine triphosphate], the Ki [4, 7] was 1270 µM, the “inhibition of Gapdhs” value [4] was “dose-dependent inhibition” and the Ki [5, 8] was 6480 µM.

With `Clc1ccc(N=c2ssnc2Cl)c(Cl)c1` [Compound 11K_064, 2,4-dichloro-N-(4chloro-5H-1,2,3-dithiazol-5-yliden)aniline] the IC50 ([2]; Table 7) was 100 µM and the IC50 [1, 9] was 500 µM.

For `Cc1ccc(S(=O)(=O)c2c(N)n(CC(O)c3ccc([N+](=O)[O-])cc3)c3nc4ccccc4nc23)cc1` (stereo not drawn) [Compound T0501_7749, 2-[2-Amino-3-(toluene-4-sulfonyl)-pyrrolo[2,3-b]quinoxalin-1-yl]-1-(4-nitro-phenyl)-ethanol], the IC50 ([2]; Table 7) was > 1000 µM, the “selective inhibition: Gapdhs” value [3] was “greater inhibition of Gapdhs than Gapdh” and the IC50 [1, 9] was 100 µM.

In the case of `OCc1nc2ccccc2[nH]1` [Compound T0504_1251, (1H-Benzoimidazol-2-yl)-methanol], the IC50 [1, 9] is reported as > 3000 µM.

In the case of `O=C(NNc1ccc(S(=O)(=O)Nc2ccccc2)cc1[N+](=O)[O-])Nc1cccc(C(F)(F)F)c1` [Compound T0506_1274, 2-[4-(anilinosulfonyl)-2-nitrophenyl]-N-[3-(trifluoromethyl)phenyl]hydrazinecarboxamide], the IC50 [1, 6] is reported as 1750 µM.

For `C=Cn1cncc1C(=O)C(F)(F)F` [Compound T0507_5482, 2,2,2-Trifluoro-1-(3vinyl-3H-imidazol-4-yl)-ethanone], the IC50 ([2]; Table 7) was > 1000 µM and the IC50 [1, 9] was > 1000 µM.

For `O=C(COC(=O)CCc1c[nH]c2ccccc12)Nc1ccc(S(=O)(=O)N2CCOCC2)cc1` [Compound T0511_4909, 3-(1H-Indol-3-yl)-propionic acid [4-(morpholine-4-sulfonyl)-phenylcaramoyl]-methyl ester], the IC50 ([2]; Table 7) was > 1000 µM, the “selective inhibition: Gapdhs” value [3] was “greater inhibition of Gapdhs than Gapdh” and the IC50 [1, 9] was 500 µM.

With `CNc1cc([N+](=O)[O-])ccc1OC` [Compound T0512_4753, (2-Methoxy-5-nitro-phenyl)-methyl-amine] the IC50 ([2]; Table 11) was > 1000 µM and the IC50 [1, 10] was > 1000 µM.

For `O=[N+]([O-])c1ccc2oc3ccccc3c2c1` [Compound T0515_4928, 2-Nitro-dibenzofuran], the “selective inhibition: Gapdhs” value [3] was “greater inhibition of Gapdhs than Gapdh” and the IC50 [1, 10] was 100 µM.

In the case of `CCOC(=O)Cc1nnc2c(Nc3ccc(OC)cc3)nc3nonc3n12` [LT00105955, [5-(4-Methoxy-phenylamino)-2-oxa-1,3,4,6,7,8a-hexaaza-as-indacen-8-yl]-acetic acid ethyl ester], the IC50 ([2]; Table 9) is reported as > 1000 µM and the IC50 [1, 6] is reported as > 1000 µM.

In the case of `C=CC(=O)NCNC(=O)C=C` [LT_00050115, N-(Acryloylamino-methyl)-acrylamide], the IC50 ([2]; Table 11) is reported as > 1000 µM and the IC50 [1] is reported as > 1000 µM.

For `CN(C)c1ccc(C(CC(=O)c2c(O)c3ccccc3n(C)c2=O)NCc2ccncc2)cc1` (stereo not drawn) [LT_00232244, 3-{3-(4-Dimethylamino-phenyl)-3-[(pyridine-4-ylmethyl)-amino]-propionyl}-4-hydroxy-1-methyl-1H-quinolin-2-one], the IC50 ([2]; Table 7) was 350 µM and the IC50 [1, 9] was > 1000 µM.

Work on `Nc1nonc1-c1nc2ccccc2n1CC(=O)N/N=C\c1cc2c(cc1[N+](=O)[O-])OCO2` [LT_00237350, [2-(4-Aminofurazan-3-yl)-benzoimidazol-1-yl]-acetic acid [1-(6-nitro-benzo[1,3]dioxol-5-yl)-meth-(Z)ylidene]-hydrazide] yielded an IC50 [1, 6] of 2000 µM.

With `CC1=NN(C(N)=N[N+](=O)[O-])C(=O)C1` [LT_00249157, 3-methyl-5-oxo-pyrazole-1-nitro-carboxamidine] the “selective inhibition: Gapdhs” value [3] was “greater inhibition of Gapdhs than Gapdh” and the IC50 [1, 9] was 100 µM.

`O=C(CN1C(=O)c2ccccc2C1=O)Nc1cc(C(=O)O)cc(C(=O)O)c1` [LT_00379844, 5-[2-(1,3-Dioxo-1,3-dihydro-isoindol-2-yl)-acetylamino]-isophthalic acid] was tested, and the IC50 [1, 6] was > 1000 µM.

With `COc1cc(C=NNC(=O)Cn2cnc3c(=O)n(C)c(=O)n(C)c32)cc([N+](=O)[O-])c1O` [LT_00444480, (1,3-Dimethyl-2,6-dioxo-1,2,3,6-tetrahydro-purin-9-yl)-acetic acid (4-hydroxy-3-methoxy-5-nitro-benzylidene)-hydrazide] the IC50 ([2]; Table 9) was 150 µM and the IC50 [1, 6] was 150 µM.

`CC(CC(=O)Nc1ccc(Cl)c(Cl)c1)=NNC(=O)c1cc2ccccc2cc1O` [LT_00587256, N-(3,4-Dichloro-phenyl)-3-[(3-hydroxy-naphthalene-2-carbonyl)-hyrazono]-butyramide] gave an IC50 [1, 6] of 5000 µM.

In the case of `COc1cc(C=NNc2ccc([N+](=O)[O-])cc2[N+](=O)[O-])ccc1OCC(=O)Nc1ccc(C)c(C)c1` [LT_01178124, N-(3,4-Dimethyl-phenyl)-2-{4-[(2,4-dinitro-phenyl)-hydrazonomethyl]-2-methoxy}-acetamide], the “IC50 GAPDHS” value ([1]; Table 9, 1 hour preincubation at 4° C., 0.5 mM NAD, 0.5 mM glyceraldehyde-3-phosphate) is reported as “not soluble”.

For `O=c1ccn([C@@H]2O[C@H](COP(=O)(O)OP(=O)(O)OP(=O)(O)O)[C@@H](O)[C@H]2O)c(=O)[nH]1` [UTP], the “inhibition of Gapdhs” value [4] was “did not inhibit” and the “inhibition of tGapdhs” value [5] was “did not inhibit”.

For `Nc1ncnc2c1ncn2[C@@H]1O[C@H](CO)[C@@H](O)[C@H]1O` [adenosine], the “inhibition of Gapdhs” value [4] was “did not inhibit” and the “inhibition of tGapdhs” value [5] was “did not inhibit”.

In the case of `Nc1ncnc2c1ncn2[C@@H]1O[C@@H]2COP(=O)(O)O[C@H]2[C@H]1O` [cAMP, cyclic AMP], the Ki [4] is reported as 1500 µM, the “inhibition of Gapdhs” value [4] is reported as “dose-dependent inhibition” and the Ki [5] is reported as 3330 µM. The “inhibition of tGapdhs” value [5] was “dose-dependent inhibition”.

From patent US20050266515A1, “Glyceraldehyde 3-phosphate dehydrogenase-S (GAPDHS), a glycolytic anzyme expressed only in male germ cells, is a target for male contraception” (The University of North Carolina at Chapel Hill, priority 2002, published 2005)
